Test results reported in patent US8785439B2, “2,5,7-substituted oxazolopyrimidine derivatives” (Sanofi, priority 2010, dated 2014).

target: T1, human Edg-1 receptor (Homo sapiens, UniProt P21453); test: GTP-γ-S assay using human Edg-1 receptors (SPA, CHO Flp-In cell membrane preparation); format: biochemical; details: test compound at 10 μM; high control 10 μM S1P regarded as 100% activation; background-corrected; triplicate
T1 construct: FLAG (N); expressed in transfected cells; membrane preparation
Description: Determination of the Pharmacological Activity A) GTP-γ-S Assay Using Human Edg-1 Receptors
In order to determine the Edg-1 receptor activation by the compounds of the invention, a GTP-γ-S (guanosine 5′-[γ-thio]triphosphate) assay for G-protein coupled receptor binding based on the scintillation proximity assay principle was used, employing a cell membrane preparation from a CHO Flp-In cell line which constitutively overexpresses the human Edg-1 receptor.
The Flp-In™ expression system (Invitrogen, cat. no. K6010-01) allows the generation of stable mammalian cell lines into which the gene of interest has been integrated through homologous recombination at a specific genomic location called Flp Recombination Target (FRT) site by means of a Flp recombinase encoded by the pOG44 expression plasmid. The integration of the pcDNA5/FRT expression construct into the Flp-In host cell line genome results in the transcription of the gene of interest. The stably transfected cells become hygromycin-resistant.
One day prior to transfection, 200 000 Flp-In-CHO cells were seeded in Ham F-12 medium (Invitrogen, cat. no. 31765) supplemented with 10% fetal calf serum (FCS; Perbio Science, cat. no. SH30068.03) in a 6-well plate and incubated at 37° C./5% CO2 overnight. Using the FuGENE® 6 transfection reagent (Roche, cat. no. 11988387001), cells were cotransfected with the Flp recombinase expression plasmid pOG44 and a modified plasmid additionally containing the edg-1 gene (accession no. NM_001400) termed as pcDNA5-FRT-TO_nFLAG_DEST-EDG-1 with a 9:1 ratio. To obtain the modified pcDNA5-FRT-TO_nFLAG_DEST plasmid, the Invitrogen plasmid pcDNA5/FRT/TO (Invitrogen, cat. no. V6520-20) was adapted to the Gateway® (Invitrogen) cloning system by inserting a Gateway cassette containing attR recombination sites flanking a ccdB gene and a chloramphenicol-resistance gene (Gateway conversion system, Invitrogen, cat. no. 11828-029). In addition a FLAG tag epitope was added before the 5′ att recombination site to allow recombinant expression of N-terminally FLAG-tagged proteins.
For the transfection of one well, 1.08 μg of pOG44 and 0.12 μg of pcDNA5-FRT-TO_nFLAG_DEST-EDG-1 were mixed with 100 μl of serum-free Ham F-12 medium containing 6 μl of FuGENE® 6 transfection reagent. After 20 min of incubation, the transfection reagent/DNA complex was distributed dropwise on the cells. The cells were incubated for 24 h at 37° C. Then the cells from 3 wells each were transferred to a T75 flask (Greiner Cellstar®, cat. no. 658175) containing Ham F-12 medium supplemented with 10% of FCS but without antibiotic and were incubated another 24 h. 48 h after transfection, the medium was replaced by selection medium (Ham F-12 supplemented with 10% of FCS and 300 μg/ml of hygromycin B (Invitrogen, cat. no. 10687-010)). The medium was exchanged every 2 to 3 days until a resistant population of cells had grown. […] After 2 weeks of selection, the cells were transferred into T175 flasks (Greiner Cellstar®, cat. no. 660175) and cultivated for batch production. Cells were harvested from the culture flasks by short treatment (2 to 5 min) with Accutase (PAA, cat. no. L11-007), resuspended in selection medium (see above) and centrifuged at 200×g for 5 min. Cells were resuspended in a mixture of 90% of FCS and 10% of dimethylsulfoxide and stored frozen in liquid nitrogen.
A membrane preparation was obtained by standard methods from the afore-described CHO Flp-In cell line constitutively overexpressing the human Edg-1 receptor. Briefly, the cryopreserved cells were taken in culture and grown until confluency in T175 cell culture flasks (Becton Dickinson, cat. no. 35 5001). […]

T1 sequence (P21453 whole entry): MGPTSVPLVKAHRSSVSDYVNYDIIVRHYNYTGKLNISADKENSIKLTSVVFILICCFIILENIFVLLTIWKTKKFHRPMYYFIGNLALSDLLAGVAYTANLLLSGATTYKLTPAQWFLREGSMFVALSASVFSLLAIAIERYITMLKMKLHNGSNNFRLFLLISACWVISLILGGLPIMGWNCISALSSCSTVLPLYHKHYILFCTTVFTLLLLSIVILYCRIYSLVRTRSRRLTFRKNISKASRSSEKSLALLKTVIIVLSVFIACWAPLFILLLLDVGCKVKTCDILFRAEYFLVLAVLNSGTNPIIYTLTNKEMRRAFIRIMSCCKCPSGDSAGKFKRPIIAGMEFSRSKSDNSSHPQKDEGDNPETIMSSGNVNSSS

Row | % Activation (Edg-1 receptor activation in percent of the activation by 10 μM S1P) [%] | SMILES
1 | 72 | CC1(C)OCC(COc2nc(OCC3CC3)c3nc(-c4cccc(F)c4)oc3n2)O1 (stereo not drawn) [Example 35]

same assay, conditions: test compound at 10 μM; high control 10 μM S1P regarded as 100% activation; background-corrected; triplicate; read-out: % Activation (Edg-1 receptor activation in percent of the activation by 10 μM S1P)

Row | activation at 10 µM [%] | SMILES
2 | 109 | Cc1cccc(-c2nc3c(OCC4CC4)nc(Oc4ccccc4F)nc3o2)c1 [Example 29, 7-cyclopropylmethoxy-5-(2-fluoro-phenoxy)-2-(3-methyl-phenyl)-oxazolo[5,4-d]pyrimidine]
3 | 134 | CCOc1nc(Oc2ccccc2F)nc2oc(-c3cc(F)ccc3Cl)nc12 [Example 30, 2-(2-chloro-5-fluoro-phenyl)-7-ethoxy-5-(2-fluoro-phenoxy)-oxazolo[5,4-d]pyrimidine]
4 | 80 | CCCOc1nc(Oc2ccccc2F)nc2oc(-c3cccc(F)c3)nc12 [Example 31, 5-(2-fluoro-phenoxy)-2-(3-fluoro-phenyl)-7-propoxy-oxazolo[5,4-d]pyrimidine]
5 | 61 | Fc1cccc(-c2nc3c(OCC4CC4)nc(Oc4ccccc4F)nc3o2)c1 [Example 32, 7-cyclopropylmethoxy-5-(2-fluoro-phenoxy)-2-(3-fluoro-phenyl)-oxazolo[5,4-d]pyrimidine]
6 | 124 | CCCOc1nc(Oc2ccccc2)nc2oc(-c3cc(C)ccc3F)nc12 [Example 33, 2-(2-fluoro-5-methyl-phenyl)-5-phenoxy-7-propoxy-oxazolo[5,4-d]pyrimidine]
7 | 99 | CC1(C)OCC(COc2nc(OCC3CC3)c3nc(-c4cc(F)ccc4Cl)oc3n2)O1 (stereo not drawn) [Example 34, 2-(2-chloro-5-fluoro-phenyl)-7-cyclopropylmethoxy-5-(2,2-dimethyl-[1,3]dioxolan-4-ylmethoxy)-oxazolo[5,4-d]pyrimidine]
8 | 78 | Cc1cccc(-c2nc3c(OCC4CC4)nc(OCC4COC(C)(C)O4)nc3o2)c1 (stereo not drawn) [Example 36, 7-cyclopropylmethoxy-5-(2,2-dimethyl-[1,3]dioxolan-4-ylmethoxy)-2-(3-methyl-phenyl)-oxazolo[5,4-d]pyrimidine]
9 | 86 | CCOc1nc(OCC2COC(C)(C)O2)nc2oc(-c3cccc(C)c3)nc12 (stereo not drawn) [Example 37, 5-(2,2-dimethyl-[1,3]dioxolan-4-ylmethoxy)-7-ethoxy-2-(3-methyl-phenyl)-oxazolo[5,4-d]pyrimidine]
10 | 70 | CCCOc1nc(OC2COC2)nc2oc(-c3cccc(C)c3)nc12 [Example 38, 5-(oxetan-3-yloxy)-7-propoxy-2-(3-methyl-phenyl)-oxazolo[5,4-d]pyrimidine]
11 | 47 | Cc1cccc(-c2nc3c(OCC4CC4)nc(OC4COC4)nc3o2)c1 [Example 39, 7-cyclopropylmethoxy-5-(oxetan-3-yloxy)-2-(3-methyl-phenyl)-oxazolo[5,4-d]pyrimidine]
12 | 120 | CCCOc1nc(Oc2ccccc2F)nc2oc(-c3cccc(OC)c3)nc12 [Example 40, 5-(2-fluoro-phenoxy)-2-(3-methoxy-phenyl)-7-propoxy-oxazolo[5,4-d]pyrimidine]
13 | 102 | CCCOc1nc(Oc2cccnc2)nc2oc(-c3cccc(OC)c3)nc12 [Example 41, 2-(3-methoxy-phenyl)-7-propoxy-5-(pyridin-3-yloxy)-oxazolo[5,4-d]pyrimidine]
14 | 130 | CCCOc1nc(Oc2ccccc2F)nc2oc(-c3cccc(O)c3)nc12 [Example 42, 3-[5-(2-fluoro-phenoxy)-7-propoxy-oxazolo[5,4-d]pyrimidin-2-yl]-phenol]
15 | 98 | CCCOc1nc(Oc2cccnc2)nc2oc(-c3cccc(O)c3)nc12 [Example 43, 3-[7-propoxy-5-(pyridin-3-yloxy)-oxazolo[5,4-d]pyrimidin-2-yl]-phenol]
16 | 94 | CCCOc1nc(Oc2cccnc2)nc2oc(-c3ccc(Cl)c(Cl)c3)nc12 [Example 44, 2-(3,4-dichloro-phenyl)-7-propoxy-5-(pyridin-3-yloxy)-oxazolo[5,4-d]pyrimidine]
17 | 74 | CCCOc1nc(OCC2COC(C)(C)O2)nc2oc(-c3ccc(Cl)c(Cl)c3)nc12 (stereo not drawn) [Example 45, 2-(3,4-dichloro-phenyl)-5-(2,2-dimethyl-[1,3]dioxolan-4-ylmethoxy)-7-propoxy-oxazolo[5,4-d]pyrimidine]
18 | 102 | CCOc1nc(Oc2ccccc2F)nc2oc(-c3cc(C)c(OC)c(C)c3)nc12 [Example 46, 7-ethoxy-5-(2-fluoro-phenoxy)-2-(4-methoxy-3,5-dimethyl-phenyl)-oxazolo[5,4-d]pyrimidine]
19 | 119 | CCOc1nc(Oc2ccccc2F)nc2oc(-c3cc(C)c(O)c(C)c3)nc12 [Example 47, 4-[7-ethoxy-5-(2-fluoro-phenoxy)-oxazolo[5,4-d]pyrimidin-2-yl]-2,6-dimethyl-phenol]
20 | 105 | CCCOc1nc(O[C@H]2CCCC[C@@H]2F)nc2oc(-c3cccc(F)c3)nc12 [Example 48, 5-((1S,2S)-2-fluoro-cyclohexyloxy)-2-(3-fluoro-phenyl)-7-propoxy-oxazolo[5,4-d]pyrimidine]
21 | 123 | Cc1cc(-c2nc3c(OC4COC4)nc(Oc4ccccc4F)nc3o2)cc(C)c1OC1COC1 [Example 49, 2-[3,5-dimethyl-4-(oxetan-3-yloxy)-phenyl]-5-(2-fluoro-phenoxy)-7-(oxetan-3-yloxy)-oxazolo[5,4-d]pyrimidine]
22 | 107 | CCCOc1nc(Oc2cc(F)ccc2C)nc2oc(-c3cccc(C)c3)nc12 [Example 50, 5-(5-fluoro-2-methyl-phenoxy)-7-propoxy-2-(3-methyl-phenyl)-oxazolo[5,4-d]pyrimidine]
23 | 110 | CCCOc1nc(Oc2ccccc2)nc2oc(-c3cccc(C)c3)nc12 [Example 51, 5-phenoxy-7-propoxy-2-(3-methyl-phenyl)-oxazolo[5,4-d]pyrimidine]
24 | 51 | CCCOc1nc(Oc2ccc(OC(F)(F)F)c(Cl)c2)nc2oc(-c3cccc(C)c3)nc12 [Example 52, 5-(3-chloro-4-trifluoromethoxy-phenoxy)-7-propoxy-2-(3-methyl-phenyl)-oxazolo[5,4-d]pyrimidine]
25 | 73 | CCCOc1nc(Oc2ccc(C)cc2C)nc2oc(-c3cccc(C)c3)nc12 [Example 53, 5-(2,4-dimethyl-phenoxy)-7-propoxy-2-(3-methyl-phenyl)-oxazolo[5,4-d]pyrimidine]
26 | 105 | CCCOc1nc(Oc2ccc(C)c(F)c2)nc2oc(-c3cccc(C)c3)nc12 [Example 54, 5-(3-fluoro-4-methyl-phenoxy)-7-propoxy-2-(3-methyl-phenyl)-oxazolo[5,4-d]pyrimidine]
27 | 81 | CCCOc1nc(Sc2nc(C)cs2)nc2oc(-c3cccc(C)c3)nc12 [Example 55, 5-(4-methyl-thiazol-2-ylsulfanyl)-7-propoxy-2-(3-methyl-phenyl)-oxazolo[5,4-d]pyrimidine]
28 | 97 | CCCOc1nc(Oc2ccc(=O)n(C)n2)nc2oc(-c3cccc(C)c3)nc12 [Example 56, 2-methyl-6-(7-propoxy-2-(3-methyl-phenyl)-oxazolo[5,4-d]pyrimidin-5-yloxy)-2H-pyridazin-3-one]
29 | 80 | CCCOc1nc(NC2CCOCC2)nc2oc(-c3cc(F)ccc3Cl)nc12 [Example 57, [2-(2-chloro-5-fluoro-phenyl)-7-propoxy-oxazolo[5,4-d]pyrimidin-5-yl]-(tetrahydro-pyran-4-yl)-amine]
30 | 102 | CCCOc1nc(Sc2nc(C)cs2)nc2oc(-c3cc(F)ccc3Cl)nc12 [Example 58, 2-(2-chloro-5-fluoro-phenyl)-5-(4-methyl-thiazol-2-ylsulfanyl)-7-propoxy-oxazolo[5,4-d]pyrimidine]
